From publication PMC7756582, “Prodrugs of γ‐Alkyl‐Modified Nucleoside Triphosphates: Improved Inhibition of HIV Reverse Transcriptase” (Angewandte Chemie (International Ed. in English), 2020)

What follows are compounds tested against T1, human DNA polymerase β (Homo sapiens, UniProt P06746) (assay: Primer extension assay with human DNA polymerase β). Details: single triphosphate, 66 μM, Pol β 6 U, 60 min.
T1 construct: purchased Roboklon
Format: biochemical
Procedure: Two different set‐ups have been used. First, a mixture of dATP, dCTP, dGTP, and γ‐alkyl‐TTP (N*) or ‐d4TTP (T*) was used as a mixture. The results obtained from these experiments were compared to those in which just γ‐alkyl‐TTP (N) or d4TTP (T) was used. In each experiment a primer extension without added polymerase (negative control, ‐ lane) and an experiment in which all four canonical NTPs were added (positive control, +lane) were used as controls.
Figure 4 Primer extension assay using DNA polymerase β and the γ‐alkyl‐dNTP 7 and 15. Lane 1 (−): dATP, dGTP, dCTP and TTP without human DNA polymerase β; lane 2 (+): dATP, dGTP, dCTP, and TTP with human Pol β; lane 3 (N, C4‐T): γ‐C4‐TTP 15 w; lane 4 (N, C18‐T): γ‐C18‐TTP 15 z; lane 5 (T, C4‐d4T): γ‐C4‐d4TTP 7 w; lane 6 (T, C11‐d4T): γ‐C11‐d4TTP 7 x; lane 7 (T, C18‐d4T): γ‐C18‐d4TTP 7 z; lane 8 (d4TTP): d4TTP. […]
Anti-HIV activity assay: Inhibition of HIV-1(IIIB)- and HIV-2(ROD)-induced cytopathicity in wild-type CEM/0 and thymidine kinase-deficient CEM/TK- cell cultures was measured in microtiter 96-well plates containing ~3·105 CEM cells/mL infected with 100 CCID50 of HIV per milliliter and containing appropriate dilutions of the test compounds. […]
2) For HIV- RT assay: The final assay solution (10 µL) consists of 50 mM Tris-HCl (pH 8.6 at 22 °C), 10 mM MgCl2, 40mM KCl, dNTPs 66 µM, HIV RT 6 U, Hybrid 0.32 µM in a reaction volume of 10 µL, incubated 37 °C for 15 min, 80 °C for 3 min; 50 mA, 45w for 4 h. […] The result was visualized by fluorescence imaging.
3) For human DNA pol β assay: The final assay solution (10 µL) consists of 50 mM Tris-HCl (pH 8.7), 10 mM MgCl2, 100mM KCl, 1.0 mM dithiothreitol, 0.4 mg/ml of bovine serum albumin, 15% glycerol, dNTPs 66 µM, DNA Polymerase Beta 6 U, Hybrid 0.32 µM in a reaction volume of 10 µL, incubated 37 °C for 60 min, 80 °C for 3 min; 50 mA, 45w for 4 h. […] The result was visualized by fluorescence imaging. […]

Compound | primer extension by DNA polymerase β (substrate properties)
Cc1cn(C2C=CC(COP(=O)(O)OP(=O)(O)OP(=O)(O)O)O2)c(=O)[nH]c1=O (stereo not drawn) [2 t, d4TTP, reference compound] | efficiently incorporated
CCCCOP(=O)(O)OP(=O)(O)OP(=O)(O)OCC1C=CC(n2cc(C)c(=O)[nH]c2=O)O1 (stereo not drawn) [7 w, γ‐C4‐d4TTP] | good substrate
CCCCCCCCCCCCCCCCCCOP(=O)(O)OP(=O)(O)OP(=O)(O)OCC1C=CC(n2cc(C)c(=O)[nH]c2=O)O1 (stereo not drawn) [7 z, γ‐C18‐d4TTP] | no incorporation was detected
